What all share (type): cell-based
In experiment [1] the test system is HT29 cells. As to the kind of experiment: Assay I of bioactive molecules on cell viability in vitro (CCK8). As to conditions: Homo sapiens, HT-29, CCK8; read-out: EC50(nM), killing of HT29 cells. Here is the method:
(§1) Tumor cells were first cultured; the bioactive molecules of the present disclosure were co-cultured with tumor cells, and then CCK8 reagent (Dojindo Laboratories (Shanghai), Cat: CK04, Lot: JJ744) was added, and the activity of dehydrogenase in mitochondria was detected by reading (detection wavelength 450 nm) on a microplate reader (manufacturer: Molecular Devices, model: SpectraMax M2), to evaluate the inhibitory effect of bioactive molecules on cell proliferation.
(§2) In vitro cell viability assay method: bioactive molecules (12 concentration gradients) were diluted with corresponding assay medium (containing 2% FBS). The tumor cells were digested by conventional methods using trypsin, and cells in tube were collected and counted, then resuspended in the corresponding assay media (containing 2% FBS). The diluted bioactive molecules were added to a 96-well plate, followed by the cells. Then, 20 μL of CCK8 reagent was added to each well, and the reaction was carried out for 4 h, then the plate was read on a microplate reader (detection wavelength was 450 nm). The experimental results are shown in Tables 6.1, 6.2, 6.3, 6.4, and 6.5.

Another experiment deals with NCl-H358 cells. The description is as above. As to conditions: Homo sapiens, read-out: EC50(nM), killing of NCl-H358 cells. On the procedure: as §1, §2
In another experiment the test system is LS174T cells. Described as above. As to conditions: Homo sapiens, read-out: EC50(nM), killing of LS174T cells. Here is the method: as §1, §2
Experiment [2] has as its system HT29 cells. The experiment in a line: Assay III of bioactive molecules on cell viability in vitro (CCK8). Particulars: Homo sapiens, HT-29; CCK8, 3-4 days (Assay III); read-out: EC50(nM), killing of HT29 cells. Here is the method:
Tumor cells HT29 (having a same source as the above) were first cultured. The bioactive molecules or fragments of the present disclosure were co-cultured with tumor cells, and then CCK8 reagent (Dojindo Laboratories (Shanghai), Cat: CK04, Lot: JJ744) was added, and the activity of dehydrogenase in mitochondria was detected by reading (detection wavelength 450 nm) on a microplate reader (manufacturer: Molecular Devices, model: SpectraMax M2), to evaluate the inhibitory effect of bioactive molecules on cell proliferation.
(§3) In vitro cell viability assay method: the tumor cells were digested by conventional methods using trypsin, and cells in tube were collected and counted, and then resuspended in the corresponding assay media (containing 2% FBS), which was added to a 96-well plate at 5000-10000 cells/well. Bioactive molecules were diluted with DMSO, and then added to a 96-well plate at 100 μL, the initial concentration was 10M, followed by 3-fold serial dilution (12 concentration gradients). The plate was incubated for 3-4 days at 37° C. under 5% CO2. Then, 20 μL of CCK8 reagent was added to each well, and the reaction was carried out for 2-6 h. The plate was read on a microplate reader (detection wavelength was 450 nm).

A further experiment has as its system NCI-H358. As to the kind of experiment: Assay II of bioactive molecules on cell viability in vitro (CCK8). As to conditions: Homo sapiens, CCK8, 3-4 days. On the procedure: (§4) Tumor cells NUCG-4, PC-9, HT29, NCI-H358, KYSE520, A431 and A549 were first cultured; the bioactive molecules or fragments of the present disclosure were co-cultured with tumor cells, and then CCK8 reagent (Dojindo Laboratories (Shanghai), Cat: CK04, Lot: JJ744) was added, and the activity of dehydrogenase in mitochondria was detected by reading (detection wavelength 450 nm) on a microplate reader (manufacturer: Molecular Devices, model: SpectraMax M2), to evaluate the inhibitory effect of bioactive molecules on cell proliferation.
as §3, with “and then 100 μL was added to” for “and then added to”, “a 96-well plate, the initial” for “a 96-well plate at 100 μL, the initial”, “concentration was 10 μM, followed by” for “concentration was 10M, followed by”

The test system of a further experiment is PC-9. The description is as above. Particulars: Homo sapiens, CCK8, 3-4 days. On the procedure: as §4
as §3, with “and then 100 μL was added to” for “and then added to”, “a 96-well plate, the initial” for “a 96-well plate at 100 μL, the initial”, “concentration was 10 μM, followed by” for “concentration was 10M, followed by”

In the next experiment the test system is A431. Described as above. Particulars: Homo sapiens, A-431; CCK8, 3-4 days. Here is the method:
as §4
as §3, with “and then 100 μL was added to” for “and then added to”, “a 96-well plate, the initial” for “a 96-well plate at 100 μL, the initial”, “concentration was 10 μM, followed by” for “concentration was 10M, followed by”

For a further experiment, the system named is NUCG-4. The description is as above. Particulars: CCK8, 3-4 days. On the procedure: as §4
as §3, with “and then 100 μL was added to” for “and then added to”, “a 96-well plate, the initial” for “a 96-well plate at 100 μL, the initial”, “concentration was 10 μM, followed by” for “concentration was 10M, followed by”

In a further experiment the test system is A549. Described as above. As to conditions: Homo sapiens, CCK8, 3-4 days. Here is the method: as §4
as §3, with “and then 100 μL was added to” for “and then added to”, “a 96-well plate, the initial” for “a 96-well plate at 100 μL, the initial”, “concentration was 10 μM, followed by” for “concentration was 10M, followed by”

In the next experiment the test system is HT29. The experiment is described as above. Particulars: Homo sapiens, HT-29; CCK8, 3-4 days. On the procedure:
as §4
as §3, with “and then 100 μL was added to” for “and then added to”, “a 96-well plate, the initial” for “a 96-well plate at 100 μL, the initial”, “concentration was 10 μM, followed by” for “concentration was 10M, followed by”

In general, EC50 refers to the concentration giving half of the maximal effect. Turning to `CC[C@@]1(O)C(=O)OCc2c1cc1n(c2=O)Cc2c-1nc1cc3c(cc1c2-c1ccc(N)cc1)OCO3` [Example A1.4, (S)-14-(4-aminophenyl)-7-ethyl-7-hydroxy-10,13-dihydro-11H-[1,3]dioxolo[4,5-g]pyrano[3′,4′:6,7]indolizino[1,2-b]quinolin-8,11(7H)-dione], the EC50 stood at 29.4 nM with HT29 cells [1] and 29.9 nM in the experiment with NCl-H358 cells.

In the case of `CC[C@@]1(O)C(=O)OCc2c1cc1n(c2=O)Cc2c-1nc1cc3c(cc1c2CCN(C(=O)CO)C(C)C)OCO3` [Example A1.8, (S)—N-(2-(7-ethyl-7-hydroxy-8,11-dioxo-7,8,11,13-tetrahydro-10H-[1,3]dioxolo[4,5-g]pyrano[3′,4′:6,7]indolizino[1,2-b]quinolin-14-yl)ethyl)-2-hydroxy-N-isopropylacetamide], the EC50 was determined as 367 nM in the experiment with HT29 cells [1] and 296 nM with NCl-H358 cells.

Take `CC[C@@]1(O)C(=O)OCc2c1cc1n(c2=O)Cc2c-1nc1cc3c(cc1c2CCNC(C)C)OCO3` [Example A1.8D, (S) 7-ethyl-7-hydroxy-14-(2-(isopropylamine)ethyl)-10,13-dihydro-11H-[1,3]dioxolo[4,5-g]pyrano[3′,4′:6,7]indolizino[1,2-b]quinolin-8,11(7H)-dione]: in the experiment on NCl-H358 cells, the EC50 turned out to be 7.92 nM.

For the molecule `CC[C@@]1(O)C(=O)OCc2c1cc1n(c2=O)Cc2c-1nc1cc(F)c(C)cc1c2CCCO` [Example A1.10, (S)-4-ethyl-8-fluoro-4-hydroxy-11-(3-hydroxypropyl)-9-methyl-1,12-dihydro-14H-pyrano[3′,4′:6,7]indolizino[1,2-b]quinolin-3,14(4H)-dione], the EC50 in the experiment on HT29 cells [1] was 5.96 nM; in the experiment with NCl-H358 cells, 8.11 nM.

Consider `CC[C@@]1(O)C(=O)OCc2c1cc1n(c2=O)Cc2c-1nc1cc(F)c(C)cc1c2CCCN` [Example A1.11, (S)-4-ethyl-8-fluoro-4-hydroxy-11-(3-aminopropyl)-9-methyl-1,12-dihydro-14H-pyrano[3′,4′:6,7]indolizino[1,2-b]quinolin-3,14(4H)-dione], for which the figures for the EC50 in the experiment with HT29 cells [1] and with NCl-H358 cells were 284 nM and 203 nM, respectively.

With `CC[C@@]1(O)C(=O)OCc2c1cc1n(c2=O)Cc2c-1nc1cc3c(cc1c2/C=C/CN)OCO3` [Example A1.12, (S,E)-14-(3-amino-1-propylen-1-yl)-7-ethyl-7-hydroxy-10,13-dihydro-11H-[1,3]dioxolo[4,5-g]pyrano[3′,4′:6,7]indolizino[1,2-b]quinolin-8,11(7H)-dione], the EC50 in the experiment with HT29 cells [1] came out at 212 nM; in the experiment with NCl-H358 cells it was 167 nM.

With `CC[C@@]1(O)C(=O)OCc2c1cc1n(c2=O)Cc2c-1nc1cc3c(cc1c2/C=C/CO)OCO3` [Example A1.13, (S,E)-14-(3-hydroxy-1-propylen-1-yl)-7-ethyl-7-hydroxy-10,13-dihydro-11H-[1,3]dioxolo[4,5-g]pyrano[3′,4′:6,7]indolizino[1,2-b]quinolin-8,11(7H)-dione], the results for the EC50 in the experiment with HT29 cells [1] and in the experiment on NCl-H358 cells were 96.8 nM and 49.2 nM, respectively.

As for `CC[C@@]1(O)C(=O)OCc2c1cc1n(c2=O)Cc2c-1nc1cc(F)c(C)cc1c2/C=C/CO` [Example A1.14, (S,E)-4-ethyl-8-fluoro-4-hydroxy-11-(3-hydroxy-1-propylen-1-yl)-9-methyl-1,12-dihydro-14H-pyrano[3′,4′:6,7]indolizino[1,2-b]quinolin--3,14(4H)-dione], the values for the EC50 in the experiment with HT29 cells [1] and in the experiment on NCl-H358 cells were 156 nM and 123 nM, respectively.

Turning to `CCCNCCc1c2c(nc3cc4c(cc13)OCO4)-c1cc3c(c(=O)n1C2)COC(=O)[C@]3(O)CC` [Example A1.15a, (S)-7-ethyl-7-hydroxy-14-(2-(n-propylamino)ethyl)-10,13-dihydro-11H-[1,3]dioxolo[4,5-g]pyrano[3′,4′:6,7]indolizino[1,2-b]quinolin-8,11(7H)-dione], the values for the EC50 with LS174T cells, with HT29 cells [1] and in the experiment on NCl-H358 cells were 19.5 nM, 3.57 nM and 3.88 nM, respectively.

Consider `CCCN(CCc1c2c(nc3cc4c(cc13)OCO4)-c1cc3c(c(=O)n1C2)COC(=O)[C@]3(O)CC)C(=O)CO` [Example A1.15b, (S)—N-(2-(7-ethyl-7-hydroxy-8,11-dioxo-7,8,11,13-tetrahydro-10H-[1,3]dioxolo[4,5-g]pyrano[3′,4′:6,7]indolizino[1,2-b]quinolin-14-yl)ethyl)-2-hydroxy-N-n-propylacetamide], for which the EC50 is 44.6 nM with LS174T cells and 47.5 nM in the experiment with HT29 cells [1].

For the molecule `CC[C@@]1(O)C(=O)OCc2c1cc1n(c2=O)Cc2c-1nc1cc3c(cc1c2-c1ccc(NC(=O)CN)cc1)OCO3` [Example B1.9, (S)-2-amino-N-(4-(7-ethyl-7-hydroxy-8,11-dioxo-7,8,11,13-tetrahydro-10H-[1,3]dioxolo[4,5-g]pyrano[3′,4′:6,7]indolizino[1,2-b]quinolin-14-yl)phenyl)acetamide], in the experiment on HT29 cells [2], the EC50 stood at 262 nM.

`CC[C@@]1(O)C(=O)OCc2c1cc1n(c2=O)Cc2c-1nc1cc(F)c(C)cc1c2CCCOCNC(=O)CN` [Example B1.12, (S)-2-amino-N-((4-(4-ethyl-8-fluoro-4-hydroxy-9-methyl-3,14-dioxo-3,4,12,14-tetrahydro-1H-pyrano[3′,4′:6,7]indolizino[1,2-b]quinolin-11-yl)propoxy)methyl)acetamide]: in the experiment on HT29 cells [2], the EC50 amounted to 85.9 nM.

As for `CC[C@@]1(O)C(=O)OCc2c1cc1n(c2=O)Cc2c-1nc1cc3c(cc1c2CCCOCNC(=O)CN)OCO3` [Example B1.14, (S)-2-amino-N-((3-(7-ethyl-7-hydroxy-8,11-dioxo-7,8,11,13-tetrahydro-10H-[1,3]dioxolo[4,5-g]pyrano[3′,4′:6,7]indolizino[1,2-b]quinolin-14-yl)propoxy)methyl)acetamide], the EC50 is 581 nM with NCI-H358; 34.3 nM in the experiment on PC-9; 68 nM in the experiment on A431; 185 nM in the experiment on NUCG-4; 252 nM in the experiment with A549; 368 nM in the experiment with HT29.

For the molecule `CC[C@@]1(O)C(=O)OCc2c1cc1n(c2=O)Cc2c-1nc1cc(F)c(C)cc1c2/C=C/COCNC(=O)CN` [Example B1.17, (S,E)-2-amino-N-(((3-(4-ethyl-8-fluoro-4-hydroxy-9-methyl-3,14-oxo-3,4,12,14-tetrahydro-1H-pyrano[3′,4′:6,7]indolizino[1,2-b]quinolin-11-yl)allyl)oxy)methyl)acetamide], the EC50 in the experiment with HT29 cells [2] turned out to be 205 nM.

Values taken from patent publication US20240108745A1, “BIOACTIVE SUBSTANCE CONJUGATE, PREPARATION METHOD THEREFOR AND USE THEREOF” (MEDILINK THERAPEUTICS (SUZHOU) CO., LTD., priority 2021, published 2024).
